Measurements published in publication doi:10.1101/2020.07.01.182642v1 (biorxiv, 2020).

Experiments:
CAMK2B = CAMK2B (Homo sapiens, UniProt Q13554); conditions: binder
CAMKK2 = CAMKK2 (Homo sapiens, UniProt Q96RR4); conditions: binder
CDC42BPG = CDC42BPG (Homo sapiens, UniProt Q6DT37); conditions: binder
CLK4 = CLK4 (Homo sapiens, UniProt Q9HAZ1); conditions: binder
CSNK1G3 = CSNK1G3 (Homo sapiens, UniProt Q9Y6M4); conditions: binder
DCLK1 = DCLK1 (Homo sapiens, UniProt O15075); conditions: binder
DMPK = DMPK (Homo sapiens, UniProt Q09013); conditions: binder
GRK1 = GRK1 (Homo sapiens, UniProt Q15835); conditions: binder
GSK3B = GSK3B (Homo sapiens, UniProt P49841); conditions: binder
JAK1 = JAK1 (Homo sapiens, UniProt P23458); conditions: binder
MAP3K5 = MAP3K5 (Homo sapiens, UniProt Q99683); conditions: binder
MAPK11 = MAPK11 (Homo sapiens, UniProt Q15759); conditions: binder
MERTK = MERTK (Homo sapiens, UniProt Q12866); conditions: binder
PTK6 = PTK6 (Homo sapiens, UniProt Q13882); conditions: binder
RIOK2 = RIOK2 (Homo sapiens, UniProt Q9BVS4); conditions: binder
STK25 = STK25 (Homo sapiens, UniProt O00506); conditions: binder
STK4 = STK4 (Homo sapiens, UniProt Q13043); conditions: binder
TGFBR1 = TGFBR1 (Homo sapiens, UniProt P36897); conditions: binder
TGFBR2 = TGFBR2 (Homo sapiens, UniProt P37173); conditions: binder
TYRO3 = TYRO3 (Homo sapiens, UniProt Q06418); conditions: binder
CLK1 (full-length) [1] = biological target: CLK1 (full-length) (Homo sapiens, UniProt P49759); assay: cell-based; parameters: species or system HEK293T
CLK1 (full-length) [2] = biological target: CLK1 (full-length) (Homo sapiens, UniProt P49759, V324A); assay: cell-based; parameters: species or system HEK293T
CDK17 = CDK17 (Homo sapiens, UniProt Q00537); conditions: binder
CDKL2 = CDKL2 (Homo sapiens, UniProt Q92772); conditions: binder
MAPK7 = MAPK7 (Homo sapiens, UniProt Q13164); conditions: binder
MAPK8 = MAPK8 (Homo sapiens, UniProt P45983); conditions: binder
MYLK = MYLK (Homo sapiens, UniProt Q15746); conditions: binder
PRKG1 = PRKG1 (Homo sapiens, UniProt Q13976); conditions: binder
STK32A = STK32A (Homo sapiens, UniProt Q8WU08); conditions: binder
IGF1R = IGF1R (Homo sapiens, UniProt P08069); conditions: binder

DMPK, sequence (Q09013 whole entry): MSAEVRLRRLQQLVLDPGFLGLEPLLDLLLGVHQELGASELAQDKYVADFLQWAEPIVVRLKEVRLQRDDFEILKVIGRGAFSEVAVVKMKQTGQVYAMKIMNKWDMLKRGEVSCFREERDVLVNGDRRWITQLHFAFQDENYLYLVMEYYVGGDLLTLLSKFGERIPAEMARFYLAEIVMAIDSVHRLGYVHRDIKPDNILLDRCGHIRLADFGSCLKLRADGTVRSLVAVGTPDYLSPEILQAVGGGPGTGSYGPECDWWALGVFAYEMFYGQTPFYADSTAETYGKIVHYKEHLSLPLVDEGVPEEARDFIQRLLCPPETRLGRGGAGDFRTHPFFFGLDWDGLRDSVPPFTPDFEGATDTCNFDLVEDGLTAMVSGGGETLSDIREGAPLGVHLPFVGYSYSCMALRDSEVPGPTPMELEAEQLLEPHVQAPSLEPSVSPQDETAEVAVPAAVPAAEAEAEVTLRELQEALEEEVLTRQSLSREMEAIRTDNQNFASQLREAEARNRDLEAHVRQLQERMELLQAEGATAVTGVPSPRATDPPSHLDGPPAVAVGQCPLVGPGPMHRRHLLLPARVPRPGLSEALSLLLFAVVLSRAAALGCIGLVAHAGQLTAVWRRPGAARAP
STK4, sequence (Q13043 whole entry): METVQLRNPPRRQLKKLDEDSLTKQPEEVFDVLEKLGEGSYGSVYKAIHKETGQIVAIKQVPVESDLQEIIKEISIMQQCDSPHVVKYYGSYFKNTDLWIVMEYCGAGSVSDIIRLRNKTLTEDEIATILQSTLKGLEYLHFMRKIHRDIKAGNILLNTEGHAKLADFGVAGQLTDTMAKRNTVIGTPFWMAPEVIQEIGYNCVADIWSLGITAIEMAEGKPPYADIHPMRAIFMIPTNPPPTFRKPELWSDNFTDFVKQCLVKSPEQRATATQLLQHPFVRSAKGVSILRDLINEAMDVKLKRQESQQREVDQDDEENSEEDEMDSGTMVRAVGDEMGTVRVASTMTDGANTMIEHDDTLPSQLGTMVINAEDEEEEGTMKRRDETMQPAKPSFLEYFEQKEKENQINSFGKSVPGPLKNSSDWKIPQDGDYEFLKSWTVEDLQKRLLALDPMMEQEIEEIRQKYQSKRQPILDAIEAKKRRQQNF
CDK17, sequence (Q00537 whole entry): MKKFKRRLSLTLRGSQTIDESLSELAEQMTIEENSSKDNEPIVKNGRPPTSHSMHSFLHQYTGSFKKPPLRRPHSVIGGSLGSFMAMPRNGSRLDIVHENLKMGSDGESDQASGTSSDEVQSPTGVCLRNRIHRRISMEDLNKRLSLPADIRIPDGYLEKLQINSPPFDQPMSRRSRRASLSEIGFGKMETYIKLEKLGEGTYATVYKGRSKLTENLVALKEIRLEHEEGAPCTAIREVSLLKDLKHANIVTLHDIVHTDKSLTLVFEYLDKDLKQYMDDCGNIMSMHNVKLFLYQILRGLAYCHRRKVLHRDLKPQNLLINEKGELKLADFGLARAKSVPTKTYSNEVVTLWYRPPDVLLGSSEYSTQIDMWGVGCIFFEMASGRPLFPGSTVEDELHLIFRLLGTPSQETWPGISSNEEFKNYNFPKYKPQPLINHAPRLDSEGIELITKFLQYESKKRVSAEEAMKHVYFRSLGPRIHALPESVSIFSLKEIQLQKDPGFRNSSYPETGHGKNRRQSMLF
PRKG1, sequence (Q13976 whole entry): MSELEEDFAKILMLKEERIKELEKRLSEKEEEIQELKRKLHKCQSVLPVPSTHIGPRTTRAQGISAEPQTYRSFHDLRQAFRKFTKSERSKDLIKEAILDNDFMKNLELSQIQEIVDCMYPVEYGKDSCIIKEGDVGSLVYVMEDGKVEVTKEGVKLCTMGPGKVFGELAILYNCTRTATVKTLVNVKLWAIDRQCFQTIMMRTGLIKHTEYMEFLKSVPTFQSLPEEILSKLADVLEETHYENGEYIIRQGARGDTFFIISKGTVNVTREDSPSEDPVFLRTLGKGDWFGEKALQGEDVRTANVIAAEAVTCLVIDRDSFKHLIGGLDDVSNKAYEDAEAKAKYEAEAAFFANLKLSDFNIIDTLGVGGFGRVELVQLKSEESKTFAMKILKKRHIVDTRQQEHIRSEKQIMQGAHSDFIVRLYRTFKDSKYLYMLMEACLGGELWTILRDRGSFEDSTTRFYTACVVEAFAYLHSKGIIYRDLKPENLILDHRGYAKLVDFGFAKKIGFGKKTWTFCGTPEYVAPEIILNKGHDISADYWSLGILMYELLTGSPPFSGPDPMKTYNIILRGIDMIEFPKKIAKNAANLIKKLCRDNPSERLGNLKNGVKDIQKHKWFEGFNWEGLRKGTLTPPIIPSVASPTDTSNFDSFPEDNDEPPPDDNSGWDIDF
MAP3K5, sequence (Q99683 whole entry): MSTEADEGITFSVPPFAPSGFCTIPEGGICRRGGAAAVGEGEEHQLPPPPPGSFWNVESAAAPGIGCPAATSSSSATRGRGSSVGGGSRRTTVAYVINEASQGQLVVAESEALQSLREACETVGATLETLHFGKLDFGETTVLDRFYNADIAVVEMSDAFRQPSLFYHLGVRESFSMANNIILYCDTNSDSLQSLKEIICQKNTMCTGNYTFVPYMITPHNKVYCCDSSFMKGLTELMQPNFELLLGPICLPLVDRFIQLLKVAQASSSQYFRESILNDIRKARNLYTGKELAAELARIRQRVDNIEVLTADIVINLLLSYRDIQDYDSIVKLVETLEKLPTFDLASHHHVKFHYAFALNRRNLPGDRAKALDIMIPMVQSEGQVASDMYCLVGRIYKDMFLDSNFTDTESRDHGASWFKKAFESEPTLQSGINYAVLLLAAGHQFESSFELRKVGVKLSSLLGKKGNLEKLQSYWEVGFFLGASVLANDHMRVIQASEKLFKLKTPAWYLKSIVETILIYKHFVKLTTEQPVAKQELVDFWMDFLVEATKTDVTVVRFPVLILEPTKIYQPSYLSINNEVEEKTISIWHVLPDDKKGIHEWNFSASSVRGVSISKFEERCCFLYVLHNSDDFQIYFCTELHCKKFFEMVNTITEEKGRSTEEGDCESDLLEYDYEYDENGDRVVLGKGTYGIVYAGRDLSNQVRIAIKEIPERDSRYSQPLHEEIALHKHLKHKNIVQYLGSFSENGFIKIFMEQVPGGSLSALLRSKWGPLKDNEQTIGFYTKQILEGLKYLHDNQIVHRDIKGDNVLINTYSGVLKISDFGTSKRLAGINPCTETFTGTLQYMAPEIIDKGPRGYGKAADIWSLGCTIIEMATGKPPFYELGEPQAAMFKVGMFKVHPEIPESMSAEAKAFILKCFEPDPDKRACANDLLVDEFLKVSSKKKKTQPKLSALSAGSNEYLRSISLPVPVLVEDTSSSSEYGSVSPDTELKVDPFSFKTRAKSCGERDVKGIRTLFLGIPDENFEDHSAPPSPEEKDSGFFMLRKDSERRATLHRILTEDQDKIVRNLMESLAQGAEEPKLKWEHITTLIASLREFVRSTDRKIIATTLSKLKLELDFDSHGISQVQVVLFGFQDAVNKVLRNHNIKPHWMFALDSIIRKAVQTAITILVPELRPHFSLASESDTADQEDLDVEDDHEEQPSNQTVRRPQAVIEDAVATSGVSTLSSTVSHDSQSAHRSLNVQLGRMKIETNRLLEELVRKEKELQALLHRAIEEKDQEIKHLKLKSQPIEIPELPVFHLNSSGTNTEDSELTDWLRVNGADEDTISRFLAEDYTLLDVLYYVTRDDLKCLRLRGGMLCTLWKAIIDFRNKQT
RIOK2, sequence (Q9BVS4 whole entry): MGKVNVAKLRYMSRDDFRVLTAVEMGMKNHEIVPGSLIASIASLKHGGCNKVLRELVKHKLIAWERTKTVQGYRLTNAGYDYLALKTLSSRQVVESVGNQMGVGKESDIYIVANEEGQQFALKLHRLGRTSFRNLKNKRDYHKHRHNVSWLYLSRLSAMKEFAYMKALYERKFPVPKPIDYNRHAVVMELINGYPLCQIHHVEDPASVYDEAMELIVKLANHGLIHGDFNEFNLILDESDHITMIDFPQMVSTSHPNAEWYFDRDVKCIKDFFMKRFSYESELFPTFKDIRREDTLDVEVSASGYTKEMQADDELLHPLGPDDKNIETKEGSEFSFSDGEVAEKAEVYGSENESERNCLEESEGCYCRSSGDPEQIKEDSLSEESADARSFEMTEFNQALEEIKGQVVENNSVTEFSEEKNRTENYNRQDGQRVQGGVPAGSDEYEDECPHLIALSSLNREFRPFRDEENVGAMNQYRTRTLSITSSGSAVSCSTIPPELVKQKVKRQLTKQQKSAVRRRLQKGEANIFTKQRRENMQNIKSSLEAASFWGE
CDKL2, sequence (Q92772 whole entry): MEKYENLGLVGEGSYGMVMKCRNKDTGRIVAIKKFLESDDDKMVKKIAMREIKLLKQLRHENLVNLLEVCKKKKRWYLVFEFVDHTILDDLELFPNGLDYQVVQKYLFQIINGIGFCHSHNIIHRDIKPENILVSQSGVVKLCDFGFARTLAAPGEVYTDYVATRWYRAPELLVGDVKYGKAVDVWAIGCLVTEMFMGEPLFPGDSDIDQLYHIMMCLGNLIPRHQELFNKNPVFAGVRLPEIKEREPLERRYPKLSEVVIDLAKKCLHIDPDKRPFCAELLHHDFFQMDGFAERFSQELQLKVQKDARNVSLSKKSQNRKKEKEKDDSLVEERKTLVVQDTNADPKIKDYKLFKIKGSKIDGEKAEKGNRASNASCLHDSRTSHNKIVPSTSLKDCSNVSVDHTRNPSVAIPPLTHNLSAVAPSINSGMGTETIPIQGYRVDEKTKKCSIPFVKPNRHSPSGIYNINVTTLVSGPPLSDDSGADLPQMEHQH

## CC(=O)c1cccc(-c2cnc3ccc(NCC4CC4)nn23)c1 [compound 1, K00135]
CAMK2B
  ΔTm inhibitor 1: 0.2 °C
CAMKK2
  ΔTm inhibitor 1: 2.5 °C
CDC42BPG
  ΔTm inhibitor 1: 0.6 °C
CLK4
  ΔTm inhibitor 1: 8.5 °C
CSNK1G3
  ΔTm inhibitor 1: 0.3 °C
DCLK1
  ΔTm inhibitor 1: 0.6 °C
DMPK
  ΔTm inhibitor 1: 1.0 °C
GRK1
  ΔTm inhibitor 1: 1.1 °C
GSK3B
  ΔTm inhibitor 1: 4.1 °C
JAK1
  ΔTm inhibitor 1: 6.4 °C
MAP3K5
  ΔTm inhibitor 1: 2.2 °C
MAPK11
  ΔTm inhibitor 1: 0.3 °C
MERTK
  ΔTm inhibitor 1: 1.3 °C
PTK6
  ΔTm inhibitor 1: 0.4 °C
RIOK2
  ΔTm inhibitor 1: 0.3 °C
STK25
  ΔTm inhibitor 1: 0.5 °C
STK4
  ΔTm inhibitor 1: 2.6 °C
TGFBR1
  ΔTm inhibitor 1: 9.5 °C
TGFBR2
  ΔTm inhibitor 1: 13.7 °C
TYRO3
  ΔTm inhibitor 1: 0.4 °C
CLK1 (full-length) [1]
  Ki: 229 ± 100 nM
CLK1 (full-length) [2]
  Ki: 512 ± 100 nM

## CCN1/C(=C/C(C)=O)Sc2ccc(OC)cc21 [compound 2, TG003]
CAMK2B
  ΔTm inhibitor 2: 0.3 °C
CAMKK2
  ΔTm inhibitor 2: 0.4 °C
CDC42BPG
  ΔTm inhibitor 2: -1.3 °C
CDK17
  ΔTm inhibitor 2: 0.0 °C
CDKL2
  ΔTm inhibitor 2: -0.5 °C
DCLK1
  ΔTm inhibitor 2: -0.4 °C
DMPK
  ΔTm inhibitor 2: 1.0 °C
GRK1
  ΔTm inhibitor 2: 0.4 °C
GSK3B
  ΔTm inhibitor 2: 1.4 °C
JAK1
  ΔTm inhibitor 2: 0.1 °C
MAP3K5
  ΔTm inhibitor 2: 0.4 °C
MAPK11
  ΔTm inhibitor 2: 0.0 °C
MAPK7
  ΔTm inhibitor 2: 0.2 °C
MAPK8
  ΔTm inhibitor 2: 0.7 °C
MERTK
  ΔTm inhibitor 2: 0.0 °C
MYLK
  ΔTm inhibitor 2: -0.2 °C
PRKG1
  ΔTm inhibitor 2: 1.6 °C
RIOK2
  ΔTm inhibitor 2: -0.2 °C
STK25
  ΔTm inhibitor 2: 0.7 °C
STK32A
  ΔTm inhibitor 2: -0.2 °C
STK4
  ΔTm inhibitor 2: 0.7 °C
TYRO3
  ΔTm inhibitor 2: 0.1 °C

## Nc1nccc(-c2ccc3noc(-c4ccc(Cl)cc4)c3c2)n1 [compound 4, K00972]
CDK17
  ΔTm inhibitor 4: 0.4 °C
CDKL2
  ΔTm inhibitor 4: 0.1 °C
CSNK1G3
  ΔTm inhibitor 4: 1.2 °C
IGF1R
  ΔTm inhibitor 4: 0.2 °C
MAPK8
  ΔTm inhibitor 4: 1.0 °C
MYLK
  ΔTm inhibitor 4: 0.1 °C
PRKG1
  ΔTm inhibitor 4: 0.5 °C
STK32A
  ΔTm inhibitor 4: 0.2 °C
TGFBR1
  ΔTm inhibitor 4: 0.9 °C
TGFBR2
  ΔTm inhibitor 4: 2.0 °C
